The record followed here is US20060004197A1, “Sulfonamide-based compounds as protein tyrosine kinase inhibitors” (priority 2004, published 2006).

Broadly, the IC50 is the point on the concentration scale where inhibition reaches its midpoint.

Common to all, as to format: biochemical
One experiment addresses T1, Recombinant human Src (Homo sapiens, UniProt P12931).
T1 construct: made in house; host or cells: baculovirus-insect cell system
In words: Src tyrosine kinase activity, poly E4Y / 32P-ATP phosphorylation assay.

For a further experiment, the target named is FGF receptor (FGFr). In words: FGFr tyrosine kinase activity, poly E4Y / 32P-ATP phosphorylation assay.
The next experiment concerns the target Recombinant Csk (Homo sapiens, UniProt P41240). Put plainly: Csk tyrosine kinase activity, poly E4Y / 32P-ATP phosphorylation assay.
The mark [1] stands for this setting: Table 4, Formula III compounds, NI = no inhibition at 100 μg/mL.
The mark [2] stands for this setting: poly E4Y / 32P-ATP, Formula IV compounds.
Setting [3] is: Table 2, Formula I compounds, NI = no inhibition at 100 μg/mL.

Bounds are passed on as bounds.

Sequence of Recombinant Csk (P41240 whole entry, species assumed): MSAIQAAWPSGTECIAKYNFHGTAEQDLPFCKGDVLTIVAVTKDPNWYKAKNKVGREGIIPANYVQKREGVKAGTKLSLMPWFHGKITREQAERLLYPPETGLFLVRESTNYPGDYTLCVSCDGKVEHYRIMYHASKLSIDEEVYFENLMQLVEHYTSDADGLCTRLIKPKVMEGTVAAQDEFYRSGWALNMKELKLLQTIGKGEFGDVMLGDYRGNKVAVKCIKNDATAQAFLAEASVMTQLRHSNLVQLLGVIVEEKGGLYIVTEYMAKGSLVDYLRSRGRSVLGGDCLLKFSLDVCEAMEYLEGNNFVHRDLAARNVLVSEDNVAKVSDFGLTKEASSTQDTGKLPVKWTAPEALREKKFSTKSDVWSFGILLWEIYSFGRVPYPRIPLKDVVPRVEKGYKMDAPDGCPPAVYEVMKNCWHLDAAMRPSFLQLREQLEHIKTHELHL

In the case of `CC(=O)Nc1cc(NS(=O)(=O)c2ccc(C)cc2)c(NS(=O)(=O)c2ccc(C)cc2)cc1Sc1ccc(Cl)cc1` [Compound 24, N-[2-(4-chloro-phenylsulfanyl)-4,5-bis-(4-toluenesulfonylamino)-phenyl]-acetamide], the 50% inhibitory concentration (IC50) was > 162 µM at Recombinant human Src (setting [1]), 515 µM on FGF receptor (FGFr) (setting [1]) and > 162 µM at Recombinant Csk (setting [1]).

On to `COC(=O)c1cc(NS(=O)(=O)c2ccc(C)cc2)c(NS(=O)(=O)c2ccc(C)cc2)cc1Oc1ccc(OC)cc1` [Compound 33, Methyl 2-(4-methoxy-phenoxy)-4,5-bis-(4-toluenesulfonylamino)-benzoate], for which the IC50 on Recombinant human Src (setting [1]) was 67 µM; at Recombinant Csk (setting [1]), > 168 µM. On FGF receptor (FGFr) (setting [1]), the “IC50 (μM) FGFr” value is “NI (NI = no inhibition at 100 μg/mL)”.

Consider `Cc1ccc(S(=O)(=O)Nc2cc(Br)c(Br)cc2NS(=O)(=O)c2ccc(C)cc2)cc1` [Compound 38a, N-[4,5-dibromo-2-(4-toluenesulfonylamino)-phenyl]-4-toluenesulfonamide], for which the results for the IC50 on Recombinant human Src (setting [1]), against FGF receptor (FGFr) (setting [1]) and on Recombinant Csk (setting [1]) were 31 µM, 110 µM and > 174 µM, respectively.

With `COc1ccc(OCc2ccc(OS(=O)(=O)c3ccc(C)cc3)c(OS(=O)(=O)c3ccc(C)cc3)c2)cc1` [Compound 48, [4-(4-methoxy-phenoxymethyl)-2-(4-toluenesulfonyloxy)-phenyl]-4-toluenesulfonate], the IC50 on Recombinant human Src (setting [2]) is 102 µM; on Recombinant Csk (setting [2]), > 180 µM. Also, the “IC50 (μM) FGFr” value against FGF receptor (FGFr) (setting [2]) was “NI (NI = no inhibition at 100 μg/mL)”.

Turning to `Cc1ccc(C(=O)Nc2cc(Sc3ccc(Cl)cc3)c([N+](=O)[O-])cc2NC(=O)c2ccc(C)cc2)cc1` [Compound 51, N-[4-(4-chloro-phenylsulfanyl)-5-nitro-2-(4-toluoylamino)-phenyl]-4-toluamide], the IC50 turned out to be 153 µM on Recombinant human Src (setting [2]), 40 µM against FGF receptor (FGFr) (setting [2]) and 51 µM on Recombinant Csk (setting [2]).

Take `Cc1ccc(C(=O)Nc2ccc(Sc3ccc(Cl)cc3)cc2NC(=O)c2ccc(C)cc2)cc1` [Compound 52, N-[4-(4-chloro-phenylsulfanyl)-2-(4-toluoylamino)-phenyl]-4-toluamide]: the figures for the IC50 at Recombinant human Src (setting [2]) and on Recombinant Csk (setting [2]) were 51 µM and > 205 µM, respectively. Besides, on FGF receptor (FGFr) (setting [2]), the “IC50 (μM) FGFr” value is listed as “NI (NI = no inhibition at 100 μg/mL)”.

With `Cc1ccc(S(=O)(=O)N(C)c2cc(Sc3ccc(Cl)cc3)c([N+](=O)[O-])cc2N(C)S(=O)(=O)c2ccc(C)cc2)cc1` [Compound 53, N-[4-(4-chloro-phenylsulfanyl)-5-nitro-2-(4-toluenesulfonyl-methyl-amino)-phenyl]-N-methyl-4-toluenesulfonamide], the IC50 at Recombinant human Src (setting [2]) worked out at 388 µM; against FGF receptor (FGFr) (setting [2]) it was 254 µM; at Recombinant Csk (setting [2]) it was 261 µM.

Turning to `Cc1ccc(S(=O)(=O)Nc2cc([N+](=O)[O-])c(Sc3ccc(Cl)cc3)cc2N)cc1` [Compound 55, N-[2-amino-4-(4-chloro-phenylsulfanyl)-5-nitro-phenyl]-4-toluenesulfonamide], the IC50 is 33 µM at Recombinant human Src (setting [2]), 2.2 µM against FGF receptor (FGFr) (setting [2]) and > 222 µM on Recombinant Csk (setting [2]).

For the compound `Cc1ccc(C(=O)Nc2cc([N+](=O)[O-])c(Sc3ccc(Cl)cc3)cc2N)cc1` [Compound 56, N-[2-amino-4-(4-chloro-phenylsulfanyl)-5-nitro-phenyl]-4-toluamide], the IC50 on Recombinant human Src (setting [2]) was > 242 µM; against FGF receptor (FGFr) (setting [2]) it was 410 µM; on Recombinant Csk (setting [2]), > 242 µM.

As to `COc1ccc(Oc2ccc(NS(=O)(=O)c3ccc(C)cc3)c(O)c2)cc1` [Compound 59, N-[2-hydroxy-4-(4-methoxy-phenoxy)-phenyl]-4-toluenesulfonamide], the half-maximal inhibitory concentration (IC50) on Recombinant human Src (setting [2]) is 65 µM; at FGF receptor (FGFr) (setting [2]) it was 65 µM; at Recombinant Csk (setting [2]) it was > 259 µM.

On to `COc1ccc(Oc2ccc(NS(=O)(=O)c3ccc(C)cc3)c(OC)c2)cc1` [Compound 60, N-[2-methoxy-4-(4-methoxy-phenoxy)-phenyl]-4-toluenesulfonamide], for which the 50% inhibitory concentration (IC50) on Recombinant human Src (setting [2]) is 129 µM; at Recombinant Csk (setting [2]), > 250 µM. Also, the “IC50 (μM) FGFr” value against FGF receptor (FGFr) (setting [2]) is listed as “NI (NI = no inhibition at 100 μg/mL)”.

With `COc1ccc(Oc2ccc(N(C)S(=O)(=O)c3ccc(C)cc3)c(OC)c2)cc1` [Compound 61, N-[2-methoxy-4-(4-methoxy-phenoxy)-phenyl]-N-methyl-4-toluenesulfonamide], the IC50 on Recombinant human Src (setting [2]) was 177 µM; at Recombinant Csk (setting [2]), > 242 µM. At FGF receptor (FGFr) (setting [2]), the “IC50 (μM) FGFr” value is “NI (NI = no inhibition at 100 μg/mL)”.

In the case of `COc1ccc(Oc2ccc(NS(=O)(=O)c3ccc(C)cc3)c(OCCO)c2)cc1` [Compound 62, N-[2-(2-hydroxy-ethoxy)-4-(4-methoxy-phenoxy)-phenyl]-4-toluenesulfonamide], the figures for the half-maximal inhibitory concentration (IC50) at Recombinant human Src (setting [2]) and at Recombinant Csk (setting [2]) were 126 µM and 15 µM, respectively. Also, the “IC50 (μM) FGFr” value against FGF receptor (FGFr) (setting [2]) is given as “NI (NI = no inhibition at 100 μg/mL)”.

As to `COc1ccc(Oc2ccc(NS(=O)(=O)c3ccc(C)cc3)c(OCCCO)c2)cc1` [Compound 63, N-[2-(3-hydroxy-propoxy)-4-(4-methoxy-phenoxy)-phenyl]-4-toluenesulfonamide], the IC50 at Recombinant human Src (setting [2]) was 212 µM; on Recombinant Csk (setting [2]), > 225 µM. The “IC50 (μM) FGFr” value against FGF receptor (FGFr) (setting [2]) is recorded as “NI (NI = no inhibition at 100 μg/mL)”.

Consider `COc1ccc(Oc2ccc(NS(=O)(=O)c3ccc(C)cc3)c(OCC(O)CO)c2)cc1` (stereo not drawn) [Compound 64, N-[2-(2,3-dihydroxy-propoxy)-4-(4-methoxy-phenoxy)-phenyl]-4-toluenesulfonamide], for which the IC50 at Recombinant human Src (setting [2]) is 189 µM; at Recombinant Csk (setting [2]), > 218 µM. Besides, at FGF receptor (FGFr) (setting [2]), the “IC50 (μM) FGFr” value is on record as “NI (NI = no inhibition at 100 μg/mL)”.

Consider `COc1ccc(Oc2ccc(NS(=O)(=O)c3ccc(C)cc3)c(OCC(=O)O)c2)cc1` [Compound 65, [5-(4-methoxy-phenoxy)-2-(4-toluenesulfonylamino)-phenoxy]-acetic acid], for which the 50% inhibitory concentration (IC50) at Recombinant human Src (setting [2]) is 169 µM; on Recombinant Csk (setting [2]), > 225 µM. The “IC50 (μM) FGFr” value against FGF receptor (FGFr) (setting [2]) was “NI (NI = no inhibition at 100 μg/mL)”.

Take `COc1ccc(OCc2ccc(OC)c(NS(=O)(=O)c3ccc(C)cc3)c2)cc1` [Compound 66, N-[2-methoxy-5-(4-methoxy-phenoxymethyl)-phenyl]-4-toluenesulfonamide]: the IC50 was 119 µM on Recombinant human Src (setting [2]), 162 µM on FGF receptor (FGFr) (setting [2]) and > 242 µM on Recombinant Csk (setting [2]).

`COc1ccc(Oc2ccc(NS(=O)(=O)c3ccc(C)cc3)c(C(=O)O)c2)cc1` [Compound 68, 5-(4-methoxy-phenoxy)-2-(4-toluenesulfonylamino)-benzoic acid]: the concentration for half-maximal inhibition (IC50) on Recombinant human Src (setting [2]) came to 133 µM; on Recombinant Csk (setting [2]), 303 µM. The “IC50 (μM) FGFr” value against FGF receptor (FGFr) (setting [2]) was “NI (NI = no inhibition at 100 μg/mL)”.

With `Cc1ccc(S(=O)(=O)Nc2ccc(Sc3ccc(Cl)cc3)c([N+](=O)[O-])c2)cc1` [Compound 69, N-[4-(4-chloro-phenylsulfanyl)-3-nitro-phenyl]-4-toluenesulfonamide], the half-inhibitory concentration (IC50) on Recombinant human Src (setting [2]) is 1970 µM; on Recombinant Csk (setting [2]) it was 986 µM. Besides, the “IC50 (μM) FGFr” value at FGF receptor (FGFr) (setting [2]) is reported as “NI (NI = no inhibition at 100 μg/mL)”.

As to `Cc1ccc(S(=O)(=O)Nc2ccc([N+](=O)[O-])c(Sc3ccc(Cl)cc3)c2)cc1` [Compound 70, N-[3-(4-chloro-phenylsulfanyl)-4-nitro-phenyl]-4-toluenesulfonamide], the figures for the IC50 at Recombinant human Src (setting [2]), on FGF receptor (FGFr) (setting [2]) and at Recombinant Csk (setting [2]) were 599 µM, 251 µM and 369 µM, respectively.

Turning to “N-[4-chloro-2-(4-toluenesulfonylamino)-phenyl]-4-toluenesulfonamide [Compound 6]”, the half-maximal inhibitory concentration (IC50) came out at 1060 µM on Recombinant human Src (setting [3]), 20.2 µM against FGF receptor (FGFr) (setting [3]) and 172 µM at Recombinant Csk (setting [3]).
